Experimental data taken from patent US20240382476A1, “ANDROGEN RECEPTOR BIOMARKERS FOR CANCER THERAPY” (priority 2021, published 2024).

Columns and labels:
[1] = test system: 22RV1 (AR+) prostate tumors; assay: Antitumor activity in mice bearing subcutaneously xenografted 22RV1 prostate tumors; format: in vivo, nude mice; details: 22RV1 (AR+) s.c. xenograft; 21-days s.c. continuous infusion by osmotic pump
Text: (§1) Animal Models. Five or six-week old male nude mice were purchased from SPF Biotechnology Co., Ltd. (Beijing, China). The prostate tumor cell suspensions (PC-3 or 22RV1) were grafted subcutaneously into the flank of nude mice at a concentration of 3×10^6 cells/mouse. Eight mice whose tumor volumes length×width^2×0.5 (length×width^2×0.5) reached approximately 100 mm^3 were divided into groups. For 21-days subcutaneous (s.c.) continuous infusion, an osmotic pump containing YM155 was implanted in the dorsum of each animal. Body weight and tumor diameter were measured every 3-4 days. The results are shown in FIG. 6A (AR^−) and 6B (AR^+). Anti-tumor activities are expressed as percent inhibition of tumor growth. The percent inhibition of tumor growth on day 21/28 was calculated using following formula: Mean % Inhibition=(mean (Control)−mean (YM155))/mean (Control)*100%. The treatment was started at day 0; vertical bars, SEM.

[2] = test system: AR− and AR+ prostate carcinoma cells (PC-3, DU145, 22Rv1, LNCaP, VcaP, LNCaP clone FGC); assay: Cell treatment and proliferation assay with high content imaging; format: cell-based, human; details: 6.25-100 nM for 72 hrs (FIG. 2); 10 nM for 2-72 hrs (FIGS. 3A-3B)
Procedure: Cell Treatment and proliferation assay. PC-3 and DU145 cells were seeded in 96-well plates (Corning, USA) at 2000 cells/well; LNCaP, VcaP, and LNCaP clone FGC cells were seeded at 5000 cells/well; and 22Rv1 cells were seeded at 3000 cells/well. Cells were treated with 10 nM YM155 or 0.1% DMSO (VWR, USA) for different times (2, 6, 24, 48, and 72 hrs). DU145 cells were also treated with YM155 (10 nM) in further combination with etoposide (0.2 ∪M)+carboplatin (2 ∪M), etoposide (0.2 ∪M)+cisplatin (2 μM), or docetaxel (0.005 μM)+carboplatin (2 μM). At indicated times, cells were fixed with Formaldehyde (final concentration at 4 or 5%; Thermo, USA) for 30-40 minutes at room temperature. The cells were washed three times with PBS (Cellmax, China), then blocked and permeabilized with 3% BSA (Sigma, USA) in 0.5% Triton X-100 (Sigma, USA) for 2 hrs at room temperature. After discarding the supernatant, the cells were incubated with DAPI (Beyotime, China) for 10 minutes at room temperature, then washed again three times with PBS. The cells were kept in PBS and protected from light throughout experiments. The treated cells were scanned for image acquisition with CellInsight™ CX5 High-Content Screening (HSC) Platform (Thermo Fisher), equipped with filters for DAPI (Ex: 386 nm).
PC-3, DU145, 22Rv1, LNCaP, VcaP, and LNCaP clone FGC cells were seeded in 96-well plates at 2000 cells/well. […]

[3] = test system: PC-3 (AR−) prostate tumors; assay: Antitumor activity in mice bearing subcutaneously xenografted PC-3 prostate tumors; format: in vivo, nude mice; details: PC-3 (AR−) s.c. xenograft, 21-days s.c. continuous infusion by osmotic pump
Text: as §1

## 1-(2-Methoxyethyl)-2-methyl-4,9-dioxo-3-(pyrazin-2-ylmethyl)-4,9-dihydro-1H-naphtho [2,3-d] imidazolium bromide [YM155]
[1]
  activity towards tumor growth relative to control: no significant difference
[2]
  sensitivity of AR− versus AR+ prostate carcinoma cells to treatment (total cell count): more sensitive
[3]; day 21
  percent inhibition of tumor growth relative to control: 89.62%
[3]; day 28
  percent inhibition of tumor growth relative to control: 93.63%
